Assay [1] concerns the target T1, Thromboxane-A synthase (Homo sapiens) (UniProt P24557).
T1 sequence (whole entry): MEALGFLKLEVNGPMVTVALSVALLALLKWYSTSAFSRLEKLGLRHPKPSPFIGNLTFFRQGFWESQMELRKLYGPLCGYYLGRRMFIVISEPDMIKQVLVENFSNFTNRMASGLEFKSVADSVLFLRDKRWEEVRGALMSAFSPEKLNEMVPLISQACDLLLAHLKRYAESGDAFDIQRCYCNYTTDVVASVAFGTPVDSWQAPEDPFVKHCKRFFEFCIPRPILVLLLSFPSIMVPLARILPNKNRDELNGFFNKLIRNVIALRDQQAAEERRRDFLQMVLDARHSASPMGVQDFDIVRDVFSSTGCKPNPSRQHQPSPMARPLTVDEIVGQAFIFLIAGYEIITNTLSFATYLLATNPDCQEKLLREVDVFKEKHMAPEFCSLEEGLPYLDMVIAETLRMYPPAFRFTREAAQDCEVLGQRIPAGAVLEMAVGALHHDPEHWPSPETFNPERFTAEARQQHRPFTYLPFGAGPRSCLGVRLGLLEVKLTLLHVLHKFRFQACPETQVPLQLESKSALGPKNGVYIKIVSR
Description: In vitro inhibition of TXA2 biosynthesis in human microsomal platelets. In kind it is functional, microsomes. The following applies: Microsome.

Assay [2] deals with T1, Thromboxane-A synthase (Homo sapiens). Kind of assay: In vitro inhibition of TXA2 biosynthesis in human microsomal platelets relative to Sodium Furegrelate. The class given is functional, microsomes. The conditions noted are these: Microsome.
For assay [3] the target is unchanged. Kind of assay: Compound was tested for thromboxane synthase activity in microsomal preparations from human platelets(HPM). In kind it is functional.
Assay [4] has the same target. Kind of assay: Compound was tested in vitro for its ability to inhibit TXA2 biosynthesis in human microsomal platelets. In kind it is functional, microsomes. The following applies: Microsome.
Assay [5] concerns Thromboxane-A synthase (Canis lupus familiaris). Kind of assay: Compound was tested for thromboxane synthase activity in microsomal preparations from dog lung(DLM).
In assay [6] the test system is Thromboxane-A synthase (Cavia porcellus). Description: Compound was tested for thromboxane synthase activity in microsomal preparations from guinea pig lung(GPLM).

Converted amounts (≈) assume the structure as drawn.

On to `O=C(O)c1cc2cc(Cc3cnccc3Cl)ccc2o1`, for which the ED50 in assay [1] was greater than 10 µg/mL. Also, in assay [2], the Relative potency was less than 0.0001.
Taken in the same sequence, the figures for `NC(=O)c1cc2cc(Cc3cccnc3)ccc2o1` were 0.3 µg/mL (≈ 1.19 µM) and 0.003.
For `O=C(O)c1cc2cc(Cc3cccnc3)cc(Br)c2o1` the same measures were 0.03 µg/mL (≈ 0.0903 µM) and 0.3.
On to `O=C(O)c1cc2cc(Cc3cccnc3)ccc2o1`, for which the ED50 in assay [1] and in assay [3] was 0.01 µg/mL (≈ 0.0395 µM) in each case.
Take `COc1cc(Cc2cccnc2)cc2cc(C(=O)O)oc12`: the ED50 in assay [1] worked out at 0.03 µg/mL (≈ 0.106 µM). In assay [2], this compound had a Relative potency of 0.3.
For `Cc1c(C(=O)O)oc2ccc(Cc3cccnc3)cc12` the same measures were 0.03 µg/mL (≈ 0.112 µM) and 0.3.
In assay [4], `O=C(O)c1cc2cc(Cc3cccnc3Cl)ccc2o1` displayed an ED50 of 0.1 µg/mL (≈ 0.348 µM) and a Relative potency of 0.1.
`O=C(c1cccnc1)c1ccc2oc(C(=O)O)cc2c1`: the ED50 in assay [1] worked out at 3 µg/mL (≈ 11.2 µM). Besides, in assay [2], the Relative potency came to 0.003.
Consider `C/C(=C\c1ccc(Cc2cccnc2)cc1)C(=O)O`, for which the ED50 in assay [1] amounted to 0.03 µg/mL (≈ 0.118 µM); in assay [3], 0.03 µg/mL (≈ 0.118 µM); in assay [5], 0.003 µg/mL (≈ 0.0118 µM); in assay [6], 0.2 µg/mL (≈ 0.79 µM). Further, in assay [2], the Relative potency came to 0.3.
In assay [1], `O=C(O)c1cc2ccc(Cc3cccnc3)cc2o1` registered an ED50 of 0.03 µg/mL (≈ 0.118 µM). In assay [2], this compound displayed a Relative potency of 0.3.
In assay [4], `CCCCC[C@H](O)/C=C/[C@H]1C2CC(N=N2)[C@@H]1C/C=C\CCCC(=O)O` (some centres not stated) had an ED50 of 0.03 µg/mL (≈ 0.0861 µM) and a Relative potency of 0.3.
Taken in the same sequence, the figures for `O=C(O)c1cc2cc(Cc3ccc(Cl)nc3)ccc2o1` were greater than 10 µg/mL and less than 0.001.
Compound `O=C(O)c1cc2ccc(CCc3cccnc3)cc2o1` had an ED50 in assay [1] of 3 µg/mL (≈ 11.2 µM). Moreover, the Relative potency in assay [2] amounted to 0.003.
As to `O=C(O)c1cc2cc(CCc3cccnc3)ccc2o1`, the ED50 in assay [1] stood at 3 µg/mL (≈ 11.2 µM). For the same compound, the Relative potency in assay [2] is 0.003.
For `O=C(O)c1cc2cc(-c3cccnc3)ccc2o1` the same measures were 0.03 µg/mL (≈ 0.125 µM) and 0.3.
In assay [4], `O=C(O)c1cc2cc(Cc3ccc[n+]([O-])c3)ccc2o1` returned an ED50 greater than 10 µg/mL and a Relative potency of less than 0.001.
For the compound `Cc1cc(Cc2cccnc2)cc2cc(C(=O)O)oc12`, in assay [1], the ED50 came to 0.03 µg/mL (≈ 0.112 µM). Further, in assay [2], the Relative potency stood at 0.3.

Values taken from ChEMBL document CHEMBL1123341, “Thromboxane A2 synthase inhibitors. 5-(3-Pyridylmethyl)benzofuran-2-carboxylic acids” (J Med Chem, 1986).
